In publication PMC4592935, “Application of Molecular Modeling to Development of New Factor Xa Inhibitors” (BioMed Research International, 2015):

Columns and labels:
[1] = molecular target: T1, Human factor Xa (Homo sapiens, UniProt P00742); assay: Inhibition of factor Xa hydrolysis of chromogenic substrate S2765 in buffer; assay type: biochemical; conditions: for IC50 / Inhibition of hydrolysis rate specific to the factor Xa substrate in the buffer system IC50: substrate S2765 250 μM, Xa 0.5 nM, 20 mM HEPES pH 8.0; for IC50: read-out: Inhibition of hydrolysis rate specific to the factor Xa substrate in the buffer system IC50; for inhibitory activity against factor Xa (in words): in vitro, chromogenic substrate hydrolysis
T1 construct: It consists of light (139 residues) and heavy (303 residues) chains linked by a disulfide bridge; purchased Hematologic Technologies Inc. (USA)
Protocol: Human factor Xa was obtained from Hematologic Technologies Inc. (USA). The Xa-specific chromogenic substrate S2765 (Z-D-Arg-Gly-Arg-pNA·2HCl) was purchased from Chromogenix (USA). All other chemicals were of reagent and analytical grade.
The kinetics of factor Xa inhibition was determined from the hydrolysis reaction of a specific substrate by the enzyme in the presence of tested substances. The chromogenic substrate S2765 (Z-D-Arg-Gly-Arg-pNA·2HCl, Chromogenix, Instrumentation Laboratory Company, Lexington, MA 02421, USA) was used for registering accumulation of p-nitroaniline as a colored product by spectrophotometer.
Plate wells were filled with 20 mM HEPES (pH 8.0) containing 140 mM NaCl and 0.1% polyethylene glycol (molecular weight 6000 Da). Thereafter, the substrate was sequentially added to each well (final concentration, 250 μM), followed by the substance being tested (to a final concentration that was varied) and Xa (final concentration, 0.5 nM). The hydrolysis rate was monitored spectrophotometrically at 405 nm (absorption maximum of the reaction product p-nitroaniline).
The initial rate was determined as the slope of the linear part of the kinetic curve over the first 10 to 20 min of measurement. The inhibitory effect was expressed as the percentage of reduction of the initial hydrolysis rate. The reaction rate in the absence of any inhibitor was taken as 100%. Each result is the mean of two parallel determinations. The inhibitor concentration was determined decreasing hydrolysis rate to 50% (IC50). […] Graphs of optical density against time were plotted.

[2] = Solubility as observed during factor Xa testing; assay type: physicochemical; conditions: limited the inhibition that could be achieved
From the text: According to the results of our molecular modeling with SOL and DISCORE programs 17 compounds have been selected and investigated in the frame of in vitro experiments.

T1 sequence (P00742 235-488 limits assumed): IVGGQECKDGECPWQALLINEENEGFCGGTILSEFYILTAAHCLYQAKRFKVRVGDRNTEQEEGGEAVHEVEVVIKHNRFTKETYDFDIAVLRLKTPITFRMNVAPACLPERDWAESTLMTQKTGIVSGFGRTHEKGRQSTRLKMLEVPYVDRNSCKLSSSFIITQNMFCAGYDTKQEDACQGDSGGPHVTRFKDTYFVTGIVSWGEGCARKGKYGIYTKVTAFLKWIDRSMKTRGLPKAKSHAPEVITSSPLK
T1 sequence (P00742 41-179 partner limits assumed): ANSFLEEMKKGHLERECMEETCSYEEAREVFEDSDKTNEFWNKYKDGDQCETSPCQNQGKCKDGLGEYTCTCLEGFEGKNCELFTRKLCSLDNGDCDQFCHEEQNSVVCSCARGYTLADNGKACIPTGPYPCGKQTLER

IC50 [1] | Molecule | further results
2.3 µM | 6-[(1,3-benzothiazol-2-ylthio)methyl]-2-[(5,6-dimethylquinazolin-2-yl)amino]pyrimidin-4(3H)-one [VGY-0006889] | 
6.3 µM | COc1cc2c3c(c1)-c1c(sn(-c4ccc(Oc5ccc(Cl)cc5)cc4)c1=S)C(C)(C)N3C(=O)C2=O [VGY-0018521] | 
10 µM | Clc1ccc2nc(Nc3nc(-c4ccccc4)c4ccccc4n3)nc(-c3ccccc3)c2c1 [VGY-0018863] | 

Further lines, the molecule ahead of its results:

Molecule | IC50 [1] | further results
Cc1ccc(C)c(N2C(=O)CC(N3CCN(Cc4ccc5c(c4)OCO5)CC3)C2=O)c1 (stereo not drawn) [VGY-0015091] |  | inhibitory activity against factor Xa (in words) [1]: did not show any inhibitory activity; Inhibition of hydrolysis rate specific to the factor Xa substrate in the buffer system IC50 [1]: Not inhibited
CC1(c2ccc(Cl)cc2)CC(C)(C)N(C(=O)CSc2ccc(Cl)cc2)c2ccccc21 (stereo not drawn) [VGY-0016013] | 19 µM | 
CN1CCN(C2CC(=O)N(c3ccc(Oc4ccccc4)cc3)C2=O)CC1 (stereo not drawn) [VGY-0017263] |  | inhibitory activity against factor Xa (in words) [1]: did not show any inhibitory activity; Inhibition of hydrolysis rate specific to the factor Xa substrate in the buffer system IC50 [1]: Not inhibited
CC1=CC(C)(C)N2C(=O)C(=C3SC(=S)NC3=O)c3cc(OC(=O)C=Cc4cccc([N+](=O)[O-])c4)cc1c32 [VGY-0018989, 4,4,6-trimethyl-2-oxo-1-(4-oxo-2-thioxo-1,3-thiazolidin-5-ylidene)-1,2-dihydro-4H-pyrrolo[3,2,1-ij]quinolin-8-yl-3-(3-nitrophenyl)prop-2-enoate] | 1.8 µM | 
CC1(c2ccc(Cl)cc2)CC(C)(C)N2C(=O)/C(=N/c3ccc(Oc4ccccc4)cc3)c3cccc1c32 (stereo not drawn) [VGY-0027889] | 20.6 µM | 
COc1ccc(C2CC(=O)c3cnc(Nc4nc(C)c5cc(C)c(C)cc5n4)nc3C2)cc1 (stereo not drawn) [VGY-0035262, 7-(4-methoxyphenyl)-2-[(4,6,7-trimethylquinazolin-2-yl)amino]-7,8-dihydroquinazolin-5(6H)-one] | 3.1 µM | 
Cc1cc2nc(Nc3ncc4c(n3)CC(c3cccs3)CC4=O)nc(C)c2cc1C (stereo not drawn) [VGY-0037900] | 10 µM | 
O=C1CC(c2cccc(Cl)c2)Cc2nc(N3CCN(Cc4ccc5c(c4)OCO5)CC3)ncc21 (stereo not drawn) [VGY-0037972] | 5 µM | 
O=C1CC(c2ccco2)Cc2nc(N3CCN(Cc4ccc5c(c4)OCO5)CC3)ncc21 (stereo not drawn) [VGY-0038035] |  | inhibition at 51 µM ([1]; at concentration of 51 μM): 34%; inhibitory activity against factor Xa (in words) [1]: weakly inhibited; Inhibition of hydrolysis rate specific to the factor Xa substrate in the buffer system IC50 [1]: Weakly inhibited; solubility (in words) [2]: poor solubility
Cc1nc(N2CCN(C)CC2)[nH]c(=O)c1Cc1ccc(C(C)C)cc1 [VGY-0039772] |  | inhibitory activity against factor Xa (in words) [1]: did not show any inhibitory activity; Inhibition of hydrolysis rate specific to the factor Xa substrate in the buffer system IC50 [1]: Not inhibited
CC1CC2(CCCC2)N2C(=O)C3(NCCc4c3[nH]c3ccccc43)c3cc(F)cc1c32 (stereo not drawn) [VGY-0041455] | 40 µM | 
COc1cccc(NC(=O)c2nnc3c(-c4ccc(Br)cc4)c(C)nn3c2C)c1 [VGY-0101011, 8-(4-bromophenyl)-N-(3-methoxyphenyl)-4,7-dimethylpyrazolo[5,1-c][1,2,4]triazine-3-carboxamide] | 2 µM | 
CCOc1ccc(N2CN(CCCN3CCOCC3)Cn3c2nc(C)c(C)c3=O)cc1 [VGY-0160076] |  | inhibitory activity against factor Xa (in words) [1]: did not show any inhibitory activity; Inhibition of hydrolysis rate specific to the factor Xa substrate in the buffer system IC50 [1]: Not inhibited
Cc1ccc2nc(Nc3nc(-c4cnc(N5CCCCC5)nc4C)cc(=O)[nH]3)nc(C)c2c1 [VGY-0163641] | 12 µM | 
